Data taken from patent US20220409578A1, “FUNCTIONALIZED 1,3-BENZENE DIOLS AND THEIR METHOD OF USE FOR THE TREATMENT OF RADIATION DERMATITIS AND OTHER SKIN DISORDERS” (KANNALIFE SCIENCES, INC., priority 2019, published 2022).

Assays:
IL-8 = IL-8 release, nickel-induced allergy in human dermal microvascular endothelial cells (ELISA); format: cell-based; details: Homo sapiens, Endothelial cell; co-treatment with NiSO4, HDMECs; read-out: IC50 of IL-8 inhibition
Protocol: Dermal Microvascular endothelial cells of human origin were cultured in vitro using standard conditions (37° C., 95% v/v air, 5% v/v CO2). Human cells were selected as relevant to cell types within skin tissues for this development program. Cell culture methods are commonly used in non-clinical studies conducted on pharmaceutical products. […] Cells were cultured until the third and fourth passage and then acclimated for 24 hours before Nickel induction and dosing procedures. Cell treatment groups were identified using appropriate 96-well plates. The test and control articles were administered to medium containing 1 mM NiSO4 in triplicates. The negative control group received vehicle-only (0.1% v/v final) dose. A fixed 0.1 μL/well from 1000× stock dose volume was administered to 100 μL of media to each cell culture well on Day 2 and incubated for 6 hours at 37 degrees. These cell cultures were also utilized to determine the concentrations of test agent that were non-toxic after 24 hours of incubation.
Assay for Interleukin-8: Test material was applied in vitro for the ability to inhibit pro-inflammatory (IL-8) cytokine secretion by cultured HDMECs co-treated with Nickel (NiSO4). Clobetasol propionate was tested as positive control material for anti-inflammatory activity. The pro-inflammatory cytokine (IL-8) was quantified by enzyme-linked immunosorbent assay (ELISA) after inflammatory induction and incubation with test and control materials. Interleukin-8 levels in cell culture medium are markers of inflammation signaling by endothelial cells present in skin microvascular tissue in response to irritation. Interleukin-8 (IL-8) levels were assessed using BD Biosciences OptEIA™ Human IL-8 ELISA Set kit (Cat. No. 555244) and Reagent Set B (Cat. No. 550534) according to the manufacture's specifications. Absorbance was measured at 450 nm using plate reader and interleukin-8 levels were calculated from a standard curve.

[1] = Antioxidant capacity (ABTS/metmyoglobin assay); format: biochemical; details: OD 750 nm, 15 minutes after hydrogen peroxide
Protocol: Antioxidant capacity: The purpose of this study was to evaluate the overall antioxidant capacity of KLS-13022 for the ability to inhibit the oxidation of ABTS. (2,2′-Azino-di-[3-ethylbenzthiazoline sulphonate]) to ABTS.^+ by metmyoglobin. Ascorbic acid (Vitamin C) was used as positive antioxidant control in the assay. The testing involved the suppression of optical density (OD) at 750 nm to a degree, which is proportional to an effective oxidation inhibition. Neat solutions were prepared for materials formulated in HPLC-grade water (ascorbic acid) or 200-proof ethanol (KLS-13022). Serial dilutions were prepared for each material and mixed with metmyoglobin enzyme in assay buffer solution. All samples were compared to vehicle-only treated samples used as negative oxidation inhibition. Optical density changes at 750 nm were evaluated 15 minutes after addition of hydrogen peroxide to each sample. Average absorbance was calculated and plotted for each sample concentration. Effective antioxidant inhibition activity based on the change of absorbance of blank (vehicle-only) sample (no material added). […] The Antioxidant assay kit was obtained from Cayman Chemical Co. (Ann Arbor, Mich.). The assay consisted in the evaluation of the overall antioxidant capacity of test materials for the ability to inhibit the oxidation of ABTS. to ABTS.^+ by metmyoglobin. […]

[2] = tested on: human 3D cornea-like EPIOCULAR; experiment: Eye irritation, EPIOCULAR reconstructed cornea-like model, OECD 492 (MTT); format: cell-based; details: KLS-13022 up to 3% w/v in 60:40 ethanol:water; OECD 492
Protocol: Ocular irritancy: The purpose of this study was to evaluate any potential ocular irritation activity of KLS-13022 formulations compared to vehicle-only treated tissues in vitro on human 3D cornea-like EPIOCULAR by topical application according to OECD 492 protocol. Test formulations of KLS-13022 up to 3% w/v in 60:40 ethanol:water vehicle were prepared fresh before use. EPIOCULAR tissues were acclimated before treatments for 24 hours and later treated topically for 30 minutes with KLS-13022 (0.01, 0.1, 0.3 1, 3% w/v). Methyl acetate was used as positive eye irritant control. Tissue viability levels were measured by MTT reduction assay method after material treatments. The levels of tissue viability after each material treatment was compared to vehicle control group to determine any potential ocular irritation activity.
Average levels of tissue viability were calculated for each treatment group. According to OECD 492 protocol, predicted positive eye irritation activities were determined when obtaining <60% tissue viability. […] Primary cornea-like inserts were used from human origin and purchased from MatTek (Ashland, Mass.). […] Tissues were cultured with standard conditions (37° C., 95% v/v air, 5% v/v CO2) and acclimated for 18+3 hours before dosing procedures.

CCC(=O)O[C@]1(C(=O)CCl)[C@@H](C)C[C@H]2[C@@H]3CCC4=CC(=O)C=C[C@]4(C)[C@@]3(F)[C@@H](O)C[C@@]21C [Clobetasol propionate, reference compound]
IC50 (IL-8): ~0.5 µM

O=C1O[C@H]([C@@H](O)CO)C(O)=C1O [ascorbic acid, reference compound]
EC50 [1]: 39.7 µM

COC(C)=O [methyl acetate, Methyl acetate, reference compound]
ocular irritancy potential [2]: strong eye irritant
